According to BindingDB's records for doi:10.1021/jm00101a032 (Pfizer, 1992):

Key:
[1] = Effect on forskolin stimulated adenylate cyclase activity at 5-hydroxytryptamine 1A receptor of guinea pig hippocampus.
[2] = Binding affinity against 5-hydroxytryptamine 1A receptor
[3] = Effect on forskolin stimulated adenylate cyclase activity at 5-hydroxytryptamine 1A receptor of guinea pig hippocampus.; remark: listed apart in the source

| SMILES | IC50 [1] | IC50 [2] | EC50 [3] |
| --- | --- | --- | --- |
| COc1ccc2[nH]cc(C[C@@H]3CCCN3C)c2c1 [5-Methoxy-3-((S)-1-methyl-pyrrolidin-2-ylmethyl)-1H-indole] | 0.14 µM | – | – |
| COc1ccc2[nH]cc(C[C@H]3CCCN3C)c2c1 [5-Methoxy-3-((R)-1-methyl-pyrrolidin-2-ylmethyl)-1H-indole] | – | 0.01 µM | 0.035 µM |
